Literature values, collected in US7550154B2, “Methods of treatment with drug loaded polymeric materials” (Yale University, priority 2004, dated 2009).

solubility in aqueous environments: limited solubility
SMILES: COc1cccc2c1C(=O)c1c(O)c3c(c(O)c1C2=O)C[C@@](O)(C(=O)CO)C[C@@H]3O[C@H]1C[C@H](N)[C@H](O)[C@H](C)O1 [Dox, doxorubicin]
